From patent US20060014726A1, “Derivatives of cyclic1, 3- propanediol phosphate and their action in differentiation therapy” (priority 2002, published 2006)

Tests used:
[1] = tested on: estrogen receptor-α (ER-α) in MCF-7 cells; assay: Western blot analysis of ER-α level in MCF-7 cells; type: cell-based, human; conditions: MCF-7 cells treated for 9 days (FIG. 9)
Procedure: Turning to FIG. 1 there are shown Western blot analyses showing the effect of 1,3cPP on the expression level of ER-α. In the ER-α assay, MCF-7 cells were incubated with 1-100 μM 1,3cPP for up to 14 days. The analysis indicates a relative increase in the level of wild type ER-α receptor (MW 70,000) with either an increase in 1,3cPP concentration or time of incubation. On days 6 and 14, a nearly 2-fold and 3-fold increase were observed, respectively (FIGS. 1A, C, D, F). […] This band could be related to one of deleted exons D3-4 (MW 49,000), D4 (MW 54,000), or D7 (MW 51,000) ER-α variants.
(§1) Breast Cancer Cells. The human breast cancer MCF-7 cell line were obtained from Prof. Hadassa Degani, of Weizmann Institute of Science, Rehovot, Israel. The cells were grown as monolayers in high glucose DMEM supplemented with 6% fetal calf serum and combined antibiotics. Human breast cancer T47D cells, clones 8 (ER^loPR^lo) and 11 (ER^+PR^+) were obtained from Prof Iafa Keydar, Tel-Aviv university and were grown in DMEM supplemented with 10% fetakl calf serum antibiotics. K562 erythroleukemia cells were obtained from Dr. Alfa Peled of Weizmann Institute of Science, Rehovot, Israel. These cells were grown in RPMI 1640 containing 10% fetal calf serum and antibiotics. All lines were grown at 37° C. in the presence of 5% CO2. The absence of Mycoplasma contamination was monitored by a Mycotrim TC test (Irvine Scientific, Santa Ana, Calif.) carried out once every 3 months.
For ER-α protein analysis, MCF-7 and T47D cells were cultured in 60×15 mm petri dishes. From the second day of culture onward, the cells were treated with various concentrations of 1,3cPP for up to 14 days. At the end of the incubation period, the medium was aspirated and the cells were washed 3 times with cold (4° C.) PBS. The cells were then gently scraped off using a rubber policeman in 0.25 ml of lysis buffer composed of 50 mM β-glycerophosphate, 1 mM DTT, 1.5 mM EGTA, 1 mM EDTA, 1% (Octylphenoxy)polyethoxyethanol (IGEPAL, Sigma, St. Louis, Mo.), a nonionic detergent, and a cocktail of protease inhibitors, including 1 mM phenylmethylsulfonyl fluoride (PMSF), 1 mM benzamidine, 10 μg/ml aprotinin, 10 μg/ml leupeptin, and 2 μg/ml pepstanin, as well as 1 mM sodium orthovanadate (Sigma, St. Louis, Mo.) as a phosphatase inhibitor. […] The protein concentration in each sample (1.5-4 mg/ml) was determined using the Coomassie Protein Assay (Pierce, Rockford, Ill.) according to the manufacturer's instructions. […] Bound antibodies were detected by horseradish peroxidase-conjugated goat anti-rabbit IgG, (Transduction Laboratories, Lexington, Ky. using the ECL detection method. Band densities were quantified by densitometry (Biorad model GS-690 Imaging densitometer) using Molecular Analyst software.

[2] = tested on: progesterone receptor (PR) in MCF-7 cells; assay: Western blot analysis of PR level in MCF-7 cells; type: cell-based, human; conditions: MCF-7 cells treated for 9 days (FIG. 10)
Procedure: In an analogous manner, a set of experiments was preformed with MCF-7 cells for determining the level of PR upon incubation with varying concentrations of 1,3-cPP for a period of up to 11 days. Similar to the augmentation observed for ER-α, an increase of up to 2.8 and 2.2 fold expression of the wild type PR (MW 98,000), was observed from 10 μM 1,3-cPP and upwards on days 8 and 11, respecively (FIGS. 3A-D).
as §1
For ER-α protein analysis, MCF-7 and T47D cells were cultured in 60×15 mm petri dishes. From the second day of culture onward, the cells were treated with various concentrations of 1,3cPP for up to 14 days. At the end of the incubation period, the medium was aspirated and the cells were washed 3 times with cold (4° C.) PBS. […] The protein concentration in each sample (1.5-4 mg/ml) was determined using the Coomassie Protein Assay (Pierce, Rockford, Ill.) according to the manufacturer's instructions. […] Bound antibodies were detected by horseradish peroxidase-conjugated goat anti-rabbit IgG, (Transduction Laboratories, Lexington, Ky. using the ECL detection method. Band densities were quantified by densitometry (Biorad model GS-690 Imaging densitometer) using Molecular Analyst software.

[3] = tested on: Casein Kinase in MCF-7 cells; assay: Casein Kinase level in MCF-7 cells; type: cell-based, human; conditions: MCF-7 cells treated for 9 days (FIG. 11)
K562 cells = tested on: K562 cells
Procedure: It is known from the literature that sodium butyrate derives K562 cells into the erythroid differentiation program (Sutherland et al. 1986). Base on such an observation, the ability of 1,3-cPP alone or in combination with sodium butyrate may trigger the erythroid differentiation program manifested by hemoglobin production.
K562 cells were incubated for 5 days in the presence or absence of 10 or 50 μM 1,3cPP and 1 mM butyric acid as a differentiating agent. Quantitative measurements of hemoglobin production was determined by staining of lysed cells with benzidine-peroxide reagent. The benzidine-peroxide reagent was prepared by dissolving 3,3′,5,5′-tetramethyl benzidine in 90% acetic acid and mixing with an equal volume of freshly prepared 1% hydrogen peroxide. Cell lysate, obtained by hypotonic lysing of 5×10^4 cells in 0.1 ml distilled water, was added to 0.1 ml benzidine reagent and incubated at room temperature for 10 minutes in the dark. Absorbance was measured at 515 nm and was taken as a relative index of the hemoglobin level.

| SMILES | Estrogen receptor alpha level [1] | progestrone receptor level [2] | Casein Kinase level [3] | hemoglobin synthesis (K562 cells) |
| --- | --- | --- | --- | --- |
| NC1(CO)COP(=O)(O)OC1 (stereo not shown) [Example 18, 5-Amino-5-hydroxymethyl-2-oxo-2λ5-[1,3,2]dioxaphosphi-nan-2-ol] | promotion of synthesis | promotion of synthesis | promotion of Casein Kinase levels |  |
| CCCC(=O)[O-].[Na+] [sodium butyrate, reference compound] |  |  |  | only a small effect |
